Assay results taken from US11414374B2, “Crystalline forms of vilanterol trifenatate and processes for their preparation” (Hovione Scientia Limited, priority 2017, dated 2022).

Experiments:
Format in all cases: physicochemical
[1] = TGA / TGA-EGA thermogravimetric analysis with evolved gas analysis; settings: for EGA: evolved solvent identified; for TGA overall weight loss: overall loss of the named solvent(s)
Experimental: The analysis was carried out using the Mettler Toledo TGA/DSC1. The sample was weighed in an aluminum pan hermetically sealed with an aluminum pierced cover. The analysis was performed heating the sample from 25° C. to 320° C. at 10° C./min. TGA-FTIR coupled with Thermo Nicoled is 10 spectometer. The analysis was carried out using the mettler toledo TGA/DSC1. The sample was weighed in an aluminum pan hermetically sealed with an aluminum pierced cover. The analysis was performed heating the sample from 25° C. to 320° C. at 10° C./min. The evolved gas is compared with ft-ir spectra database for identification.

[2] = Stability test (sealed vial 18 h), form by XRPD; settings: resulting form
[3] = Stability test (60° C. 75% RH-3 d), form by XRPD; settings: resulting form
[4] = DSC - differential scanning calorimetry; settings: for DSC (onset) endo. Form 1 melting: endothermic event: Form 1 melting; for DSC (onset) endo. degradation: endothermic event: degradation; for DSC (onset) endo. solvent loss: endothermic event: solvent loss
Experimental: The analysis was carried out using a DSC Q200 TA instruments equipped with a refrigerator cooling system (RCS40) and autosampler. The sample was weighed in an aluminum hermetic pan with pinhole. The analysis was performed heating the sample from 25° C. to 350° C. at 10° C./min.

[5] = Dynamic vapor sorption (DVS) analysis / hygroscopicity (EP 7.0 classification); settings: for Hygroscopically (DVS): DVS hygroscopicity class; for XRPD after DVS: resulting form after DVS
Experimental: The hygroscopicity value is directly obtained from the sorption row at 80% RH, cycle 1.
Hygroscopicity of a sample of each of new form II and comparative form I was determined using the protocol provided below in conditions of 80% RH and 25° C.
The sample was subjected to DVS measuring using SMS-DVS intrinsic. The kinetic moisture sorption measurement was performed at 25° C. and in a RH % range described in the following: • From 40% RH to 90% RH • Form 90% RH to 0% RH • From 0% RH to 90% RH • From 90% RH to 0% RH
The sample was analyzed by XRPD after the analysis.
The hygroscopicity was calculated using the following equation: % Weight Change=[(W2−W1)/W1]*100 W1: weight of sample at the start of the experiment (25° C. and 40% RH) W2: weight of sample at 25° C. and 80% RH in the first absorption cycle

[6] = Storage stability of exposed powder at 25° C. and 60% RH for seven days, compared by XRPD; settings: 25° C. 60% RH, 7 d, resulting form
Experimental: Approximately 30 mg of exposed powder of comparative form 1 and new forms II and III, respectively, were stored at 25′C and 60% RH for seven days. Each powder was then analyzed by XRPD and its diffraction pattern was compared with that of untreated sample.

[7] = Stability test (exposed sample 16 h), form by XRPD; settings: resulting form
[8] = XRPD after Grinding; settings: resulting form after grinding

OCc1cc([C@@H](O)CNCCCCCCOCCOCc2c(Cl)cccc2Cl)ccc1O [form XI, vilanterol trifenatate]
EGA ([1]; listed as Form 11): Cyclohexane and 2-
TGA overall weight loss ([1]; listed as Form 11): loss of 51% w/w
Stability test (sealed vial 18 h) ([2]; listed as Form 11): Form 11
Stability test (60° C. 75% RH-3 d) ([3]; listed as Form 11): Form 1 (almost
DSC (onset) endo. Form 1 melting ([4]; listed as Form 11): endo. 135 °C Form 1
DSC (onset) endo. degradation ([4]; listed as Form 11): endo. 188.6 °C
DSC (onset) endo. solvent loss ([4]; listed as Form 11): endo. 50-100 °C solvent loss
Hygroscopically (DVS) ([5]; listed as Form 11): Slightly hygroscopic (Increase in mass is less than 2% and equal to or greater than 0.2%)
XRPD after DVS ([5]; listed as Form 11): Ascribable to Form 11
Stability test (25° C. 60% RH-7 d) ([6]; listed as Form 11): Form 1 (start
Stability test (exposed sample 16 h) ([7]; listed as Form 11): Form 11
XRPD after Grinding ([8]; listed as Form 11): Form 12

OCc1cc([C@@H](O)CNCCCCCCOCCOCc2c(Cl)cccc2Cl)ccc1O [form XII, vilanterol trifenatate]
EGA ([1]; listed as Form 12): Water and 1.2-
TGA overall weight loss ([1]; listed as Form 12): One loss of 61.6% w/w
Stability test (sealed vial 18 h) ([2]; listed as Form 12): Form 12
Stability test (60° C. 75% RH-3 d) ([3]; listed as Form 12): Form 1 (almost
DSC (onset) endo. Form 1 melting ([4]; listed as Form 12): endo. 134 °C Form 1
DSC (onset) endo. degradation ([4]; listed as Form 12): endo. 189 °C
DSC (onset) endo. solvent loss ([4]; listed as Form 12): endo. 21 °C solvent loss
Hygroscopically (DVS) ([5]; listed as Form 12): Slightly
XRPD after DVS ([5]; listed as Form 12): Form 1
Stability test (25° C. 60% RH-7 d) ([6]; listed as Form 12): Form 1 (almost
Stability test (exposed sample 16 h) ([7]; listed as Form 12): Form 12
XRPD after Grinding ([8]; listed as Form 12): Amorphous (few
